In patent US20240092756A1, “METHODS AND COMPOSITION FOR KRAS MODIFICATIONS” (2692372 ONTARIO, INC., priority 2020, published 2024):

Legend:
[1] = target: KRAS G12C Lite (Homo sapiens, UniProt P01116, C118S/C51S/C80S/G12C/S136P/S39C); experiment: Differential scanning fluorimetry, KRAS G12C Lite; assay type: binding; parameters: key: Y: protein destabilized; N: protein not destabilized; conditions: 37° C. 5 hours incubation
Procedure: (§1) KRas proteins at 0.05 mg/ml in buffer Hepes, 147 mM NaCl, 2% glycerol, 5 mM MgCl2, 1 mM EDTA, 10 μM GDP, pH 8.0 were incubated in the presence desired concentration of compounds (5% DMSO final concentration) at 37° C. for 5 hours. After incubation, Sypro Oange to a final concentration of 5× was added to each sample. 20 μl aliquots of samples were transferred PCR tubes, sealed with caps, and run in a BioRad CFX96 RTPCR thermocycler. In the instrument, the samples were heated at a rate of 1° C./min from 25 to 90 degrees. Fluorescence readings were taken every 1 degree. The data generated was exported and analyzed using GraphPad-Prism software. The denaturation curves were fit using a Boltzmann sigmoidal equation to calculate melting temperatures (Tm).

[2] = target: T1, KRAS G12C (Homo sapiens, UniProt P01116, G12C); experiment: SOS1-catalyzed KRAS coupled nucleotide exchange assay (Alpha technology); assay type: biochemical; parameters: His; key: A: KRAS G12C bound and modulated; conditions: inhibition of SOS1 mediated KRAS nucleotide exchange
Outline: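 Alpha readout of c-RAF RBD binding to GTP-bound KRAS, normalized to DMSO. Method I: 20 nM GDP-KRAS G12C/C118A with compound 5 min, then 1.25 mM GTP + 500 nM SOS-1 30 min, pH 7.4 HEPES/MgCl2 buffer, 50 nM RBD. Method II: 50 nM GDP-KRAS G12C with compound 2 h, 1 mM GTP + 500 nM SOS-1 30 min, 2.5 nM GST-RBD; RT throughout.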

[3] = target: T1, KRAS G12C; experiment: Differential scanning fluorimetry, KRAS G12C; assay type: binding; parameters: purchased; key: Y: protein destabilized; N: protein not destabilized; conditions: 37° C. 5 hours incubation
Procedure: as §1

KRAS G12C Lite DSF ΔTm [1]	KRAS-SOS1 Nucleotide Exchange [2]	KRAS G12C DSF ΔTm [3]	Compound
Y	A	Y	Cc1ccnc(C(C)C)c1-n1c(=O)nc(NC2CN(S(=O)(=O)c3c(F)c(F)c(F)c(F)c3C(F)(F)F)C2)c2cc(F)c(Cl)nc21 [Compound 14A, 7-chloro-6-fluoro-1-(2-isopropyl-4-methylpyridin-3-yl)-4-((1-((2,3,4,5-tetrafluoro-6-(trifluoromethyl)phenyl)sulfonyl)azetidin-3-yl)amino)pyrido[2,3-d]pyrimidin-2(1H)-one]
Y	A	Y	Cc1ccnc(C(C)C)c1-n1c(=O)nc(NC2CN(S(=O)(=O)c3c(F)c(F)c(F)c(F)c3C(F)(F)F)C2)c2cc(F)c(-c3c(O)cccc3F)nc21 [Compound 15A, 6-fluoro-7-(2-fluoro-6-hydroxyphenyl)-1-(2-isopropyl-4-methylpyridin-3-yl)-4-((1-((2,3,4,5-tetrafluoro-6-(trifluoromethyl)phenyl)sulfonyl)azetidin-3-yl)amino)pyrido[2,3-d]pyrimidin-2(1H)-one]
